Data: patent publication US8603498B2, “Lipo-phosphated or lipo-sulphated compound, compositions comprising it and topical uses thereof” (Sederma, S.A.S., priority 2010, dated 2013)

Legend:
G3PDH = G3PDH activity in differentiating 3T3-L1 cells; format: cell-based
Description: (§1) 3T3-L1 cells were cultivated until sub-confluence, then induced to differentiate with the appropriate mixture with or without the Lipo-Phosphomalate at different concentrations. After 3 days of incubation, the differenciation mixture is replaced by a new maintaining culture medium, in the presence or not of the Lipo-Phosphomalate. After 3 days of incubation, the cell layers are collected and the activity of G3PDH is assayed.

collagen I = assay: Synthesis of collagen I on human dermal fibroblast (immunolabeling); format: cell-based; conditions: for collagen I AFU mean: 7 days
Description: Normal human fibroblasts (NHF) are cultivated in MW24 plates for 24 hours. The cells are contacted or not with the Lipo-Phosphomalate of the invention at various concentrations for 7 days. The synthesis of collagen I produced by the cells is then quantified by immunolabeling fixed on the layers using a specific antibody. Quantification by image analysis is then performed on the photos. TGF-β1 is used as positive control.
An analysis of variance was performed on the data (cases treated compared with untreated cases). In the case of identity of variances, a Student't test was then performed on the means.

cholesterol = assay: Cholesterol in keratinocytes by immunolabelling (IMF); format: cell-based, human; conditions: 5 ppm, 7 days
Description: Cultured human keratinocytes at confluence were placed in contact with the Lipo-Phosphomalate in a medium slightly enriched with calcium to promote the establishment of intercellular junctions and thus improve the anchorage of differentiated cells to the underlying cells. A negative control was carried out in the same medium. After a 7-day contact period, the layer was labeled with a cholesterol-specific fluorescent. The intensity of the labeling was analysed on the photos and compared to that obtained with the negative control (Table 6).

tyrosinase = target: T1, tyrosinase (Homo sapiens, UniProt P14679); assay: Tyrosinase activity of human melanocytes; format: cell-based; conditions: 5 days
T1 construct: endogenous in cells; host or cells: human melanocytes (homogenates)
T1 sequence (P14679 19-529): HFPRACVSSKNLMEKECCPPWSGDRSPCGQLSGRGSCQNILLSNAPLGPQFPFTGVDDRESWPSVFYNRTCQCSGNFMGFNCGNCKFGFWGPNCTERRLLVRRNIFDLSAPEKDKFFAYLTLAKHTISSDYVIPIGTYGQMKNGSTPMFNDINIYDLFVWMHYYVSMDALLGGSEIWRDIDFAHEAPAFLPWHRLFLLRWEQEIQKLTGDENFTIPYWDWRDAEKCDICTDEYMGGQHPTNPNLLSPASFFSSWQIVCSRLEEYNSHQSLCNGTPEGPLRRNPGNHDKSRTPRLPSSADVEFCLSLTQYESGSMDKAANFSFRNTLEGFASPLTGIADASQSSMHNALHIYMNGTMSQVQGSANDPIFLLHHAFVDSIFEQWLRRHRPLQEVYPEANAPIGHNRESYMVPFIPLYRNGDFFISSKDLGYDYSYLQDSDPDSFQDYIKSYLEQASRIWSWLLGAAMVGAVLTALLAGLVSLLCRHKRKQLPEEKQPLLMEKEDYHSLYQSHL
Description: Human melanocyte are sowed and contacted with the […] for 5 days. At the end of the incubation period, the residual tyrosinase activity was measured in cell homogenates.

transglutaminase-1 gene = assay: DNA-Array study, transglutaminase-1 gene; format: cell-based; conditions: in the presence of solubilised Lipo-Phosphomalate
Description: (§2) In addition, a DNA-Array study has shown that the transglutaminase-1 and involucrin genes are over-expressed in the network with other genes essential for the formation of the corinfied layer in the presence of solubilised Lipo-Phosphomalate.

CD44 = CD44 synthesis by human keratinocytes (immunological labeling); format: cell-based; conditions: 5 ppm, 22 days
Description: Human keratinocytes were cultivitated in 35 mm box to confluence. Cells are contacted or not with the Lipo-Phosphomalate for 22 days. At the end of this contact period, the cells are fixed and an immunological labeling of the CD44 is made using specific antibodies.

laminin = assay: Laminin synthesis by human keratinocytes (ELISA); format: cell-based; conditions: for laminin ng/10^e6cells: 3 days, supernatant
Description: Human keratinocytes are humains were cultivated in MW24 plates for 24 h. Cells were contacted or not with the Lipo-Phosphomalate for 3 days. Culture surpernatants were taken and an assay of the quantity of laminin was achieved. TGF-β1 was used as the positive control.

involucrin gene = assay: DNA-Array study, involucrin gene; format: cell-based; conditions: in the presence of solubilised Lipo-Phosphomalate
Description: as §2

triglycerides = assay: Synthesis of intracellular triglycerides in 3T3-L1 cells (enzymatic method); format: cell-based
Description: as §1, with “quantity” for “cell layers are collected and the activity”, “intracellular triglycerides” for “G3PDH”, “measured by enzymatic method.” for “assayed.”

transglutaminase = assay: Transglutaminase activity in keratinocytes by enzymology (fluorescent substrate); format: cell-based, human; conditions: 5 ppm, 14 days; for Enzymology % Change: vs control
Description: At the end of the 14-day contact period, the cells were placed in contact with a fluorescent synthetic transglutaminase substrate. Metabolisation of the substrate via transglutaminase will allow the fixation in the intracellular protein matrix. After rinsing, the non fixed fluorescent substrate is eliminated and the fluorescence fixed in the cells by the enzyme is quantified.

transglutaminase-1 m-RNA = assay: Transglutaminase-1 m-RNA in keratinocytes by qRT-PCR; format: cell-based, human; conditions: 5 ppm, 14 days; for m-RNA % change: after normalisation by the housekeeping gene
Description: ByqRT-PCR: Human keratinocytes were placed in contact/not placed in contact with solubilised for 14 days. At the end of the contact period, the cultures were stopped and m-RNA allowing production of transglutaminase-1 protein was quantified using the RT-PCR method.
After extraction and purification of the m-RNA, copies are made in DNA using a Reverse Transcriptase (RT). The number of copies of a given m-RNA (here that of TGase) is thereafter amplified using two oligonucleotides (called primers) specific to the gene of TGase and to an enzyme (PCR=polymerase chain reaction) during a series of amplification cycles, each of which doubling the number of copies present. The result of this amplication is measured by fluorescence. Ct is the number of cycles required to achieve a given fluorescence level (arbitrarily set). It is clear, that the more m-RNA of a given gene present in the starting culture there are, the fewer cycles (Ct) are needed to reach the set level of fluorescence.

fibroblasts = assay: Lipid production in fibroblasts; format: cell-based
Description: This lipid production by the Lipo-Phosphomalate was not observed in fibroblasts or melanocytes. It is therefore a specific effect related to the metabolism of keratinocyte during its differentiation.

loricrin = assay: Production of loricrin in cultured human keratinocytes by immunolabelling; format: cell-based; conditions: 1.5 ppm
Description: Protocol: Human keratinocytes were cultivated up to confluence. The cells were then placed in contact/not contact with the solubilized Lipo-Phosphomalate for 21 days. At the end of this contact period, labelling common to both filaggrin and profilaggrin was carried out on cell layers using specific antibodies. Labelling intensity was analysed on photos (n=15 photos) and compared to that obtained for the negative control and for vitamin D3 at 10^−7M used as a positive differentiation control.
Loricrine is one of the key elements in the formation of the corneal envelope. It is attached to involucrin (see 1.1) by transglutaminase, which forms rigid, insoluble structures. The method described in 1.2. was used.

[1] = listed as Solubilised Lipo-Phosphomalate
[2] = listed as solubilised Lipo-Phosphomalate

tyrosinase activity Variation (%) (tyrosinase; 10 ppm): −21%; p < 0.01
tyrosinase activity Variation (%) (tyrosinase; 12 ppm): −28%; p < 0.01
tyrosinase activity Variation (%) (tyrosinase; 15 ppm): −31%; p < 0.01
transglutaminase-1 gene expression (DNA-Array) (transglutaminase-1 gene): over-expressed
SMILES: CCCCCCCCCCCCCCOC(=O)CC(OP(=O)(O)O)C(=O)O (stereo not shown) [Lipo-Phosphomalate, 2-phosphate-succinic-acid-4-tetradecyle ester]
G3PDH activity % Change/control (G3PDH; 10 ppm): +158%; p < 0.01
G3PDH activity % Change/control (G3PDH; 15 ppm): +225%; p < 0.01
collagen I AFU mean (collagen I; Eq 1%): 8.1 +/− 5.6 AFU
collagen I % Variation/control (collagen I; Eq 1%, p = 0.09): +60%;
collagen I % Variation/control (collagen I; Eq 3%): +315%;
collagen I AFU mean (collagen I; Eq 3%): 21.1 +/− 13.8 AFU
collagen I % Variation/control (collagen I; Eq 5%): +496%;
collagen I AFU mean (collagen I; Eq 5%): 30.4 +/− 14.6 AFU
IMF Cholesterol (UFA/10^6 cell.) (cholesterol): 4.98 ± 2.59 UFA/10^6 cell.
IMF Cholesterol % Change (cholesterol; vs control): +107%; p < 0.04
CD44 % Variation/control (CD44): +587%; p <
CD44 UFA/10^6 cells (CD44): 27.20 +/− 16.5 UFA/10^6 cells
CD44 variation/control (times) (CD44): 0.01 => ×7
laminin % Variation/control (laminin; 1.67 ppm): +64%; p < 0.01
laminin ng/10^e6cells (laminin; 1.67 ppm): 190 +/− 11 ng/10^e6cells
laminin % Variation/control (laminin; 5 ppm): +187%; p < 0.01
laminin ng/10^e6cells (laminin; 5 ppm): 333 +/− 10 ng/10^e6cells
laminin % Variation/control (laminin; 8.33 ppm): +196%; p < 0.01
laminin ng/10^e6cells (laminin; 8.33 ppm): 343 +/− 10 ng/10^e6cells
involucrin gene expression (DNA-Array) (involucrin gene): over-expressed
intracellular triglycerides % Change/control (triglycerides; 10 ppm): +112%; p < 0.01
intracellular triglycerides % Change/control (triglycerides; 15 ppm): +210%; p < 0.01
Enzymology Transglutaminase (UFA/10^6 cell.) (transglutaminase): 516 ± 63 UFA/10^6 cell.
Enzymology % Change (transglutaminase; [1]): +124%; p < 0.01
Enzymology % Change (transglutaminase; [2]): ~+100%
m-RNA % change (transglutaminase-1 m-RNA; [1]): +101%; p < 0.01
m-RNA % change (transglutaminase-1 m-RNA; [2]): ~+100%
m-RNA Number of cycles: Ct (transglutaminase-1 m-RNA; control 24.60 ± 0.42): 23.25 ± 0.46
lipid production (cholesterol, ceramides) (fibroblasts): not observed
Loricrin (UFA/10^6 cell.) (loricrin): 1.69 ± 0.67 UFA/10^6 cell.
